Data reported in PubChem BioAssay (NCI).
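In this assay, cells in 96-well plates receive the compound at five concentrations for 48 hours. Endpoints are linearly interpolated between the surrounding concentrations. Abbreviation: GI50, concentration required for 50% inhibition of growth. Definition used: TGI = concentration required for complete inhibition of growth.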

How the values were obtained:
Experiment in all cases: NCI tumour cell line growth inhibition, 48 h
[1] = test system: U251 CNS
[2] = test system: MCF7 breast
[3] = test system: OVCAR-3 ovarian
[4] = test system: SK-MEL-28 melanoma
[5] = test system: A549 NSCLC
[6] = test system: MALME-3M melanoma
[7] = test system: SF-539 CNS
[8] = test system: RXF 393 renal
[9] = test system: CAKI-1 renal
[10] = test system: ACHN renal

Row | SMILES | GI50 [1] [µM] | TGI [1] [µM] | GI50 [2] [µM] | TGI [2] [µM] | GI50 [3] [µM] | TGI [3] [µM] | GI50 [4] [µM] | TGI [4] [µM] | GI50 [5] [µM] | TGI [5] [µM] | GI50 [6] [µM] | TGI [6] [µM] | GI50 [7] [µM] | TGI [7] [µM] | GI50 [8] [µM] | TGI [8] [µM] | GI50 [9] [µM] | TGI [9] [µM] | GI50 [10] [µM] | TGI [10] [µM]
1 | O=C(Nc1ccccc1)Nc1ccccc1CNc1nc(Nc2ccc(OCCN3CCCC3)cc2)ncc1Cl | 1.93 | 13.7 | 1.69 | 7.82 | 1.09 | 2.36 | 5.62 | 11.9 | 5.7 | 21.7 | 5.51 | 12.7 | 1.72 | 6.23 | 1.44 | 5.84 | 6.1 | 12.4 | 1.85 | 6.83
2 | O=C(CN=Cc1cccs1)CSC(c1ccccc1)c1ccccc1 | 34.5 | > 100 | 18.8 | 52.6 | 17.6 | 48.1 | 27.7 | > 100 | 21.7 | 76.1 | 19.6 | 49.4 | 26.6 | 71.1 | 17.1 | 44.1 | 24.9 | 67.1 | 28.8 | 79.6
3 | CC(=O)C1=C(O)/C(=C\c2ccco2)OC1=O |  | > 10 |  | > 10 |  | > 10 |  | > 10 |  | > 10 |  | > 10 |  | > 10 |  | > 10 |  | > 10 |  | > 10
4 | CC(C)n1nc(C#Cc2cccc(NC(=O)c3cccc(C(F)(F)F)c3)c2)c2c(N)ncnc21 | 3.05 | 69.4 | 7.5 | > 100 | 2.96 | 28.9 | 0.368 | 6.82 | 3.29 | 64.4 | 0.203 | 4.41 | 0.445 | 2.33 | 1.02 | 2.49 | 2.06 | 12.8 | 1.01 | 5.72
5 | O=[N+]([O-])O.[NH-]C1CCCCC1[NH-].[NH-]C1CCCCC1[NH-].[NH-]C1CCCCC1[NH-].[OH-].[OH-].[OH-].[Pt+4].[Pt+4].[Pt+4] (centres undefined) | 0.513 | 38.1 | 0.157 | > 45.6 | 2.16 | > 68.1 | 1.43 | 43.2 | 0.319 | 31.3 | 0.199 | 2.7 | 1.31 | > 68.8 | 1.2 | 17.3 | 0.222 | 9.33 | 0.164 | 
6 | CC(C)(C)NCCC(O)c1cc(C(F)(F)F)nc2c(C(F)(F)F)cccc12 (centres undefined) |  | 20.2 |  | 27.6 |  | 20.4 |  | 30.7 |  | 13.5 |  | 27.2 |  | 31 |  | 19.2 |  | 9.97 |  | 21.1
7 | COc1cc(/C=C\c2cccnc2Nc2ccccc2)cc(OC)c1OC | 4.1 | > 100 | 3.97 | 44.7 | 7.45 | 28.7 | 5.43 | 41 | 4.21 | > 100 | 15.3 | 87.4 | 12.2 | > 100 | 5.22 | 64.8 | 4.01 | 61.1 | 5.33 | 78.1
